According to patent publication US4460508A, “5-Diazacycloalkylimidazo[1,2-c][1,3]benzodiazepines” (Ciba-Geigy Corporation, priority 1982, dated 1984):

System: α-adrenergic
Test: α-adrenergic blocking activity in vitro

CN1CCN(C2=Nc3ccccc3Cc3nccn32)CC1 [example 1, 5-(4-methyl-1-piperazinyl)-11H-imidazo[1,2-c][1,3]benzodiazepine]
α-adrenergic blocking activity: only minimal
